Measurements published in patent US20260184675A1, “CHIRAL ISOMERIC SULFITE COMPOUND AND APPLICATION THEREOF” (Chengdu Hanova BioSciences Co., Ltd, priority 2024, published 2026).

Tested on: eggs of Tetranychus cinnabarinus
Test: Effects of sulfite compounds 1-30 and 1′-30′ on hatching of eggs of Tetranychus cinnabarinus at 100 ppm, leaf disc method
Assay type: in vivo
Settings: 7 days after insecticide delivery
Experimental: • (1) Preparation of leaf discs containing eggs: 20 female adult mites of Tetranychus cinnabarinus were transferred onto leaf discs of Vicia faba with a diameter of 2.0 cm (with wetted filter paper at the bottom), then covered it with a lidded culture dish and cultivated under moisturizing conditions, the adult mites were removed within 36 hours and microscopic examination and counting were performed on leaf discs containing eggs. • (2) Investigation of egg population base: Before pesticide soaking, a microscopic examination was conducted on the egg basic number of each leaf disc, with 2 replicates set for each treatment. • (3) Pesticide soaking treatment: The leaf butterflies loaded with mite eggs were soaked in clear water and sulfite compounds for 10 seconds, respectively, then taken out and cultivated under moisturizing conditions. Each treatment should be repeated for no less than 3 times. • (4) Cultivation and observation: The […] were cultivated under normal conditions. Five days after insecticide delivery, the hatching status of mite eggs was investigated. • Note: The temperature and humidity conditions of the constant temperature and humidity incubator after the treatment should be controlled so as to avoid excessive temperature differences, which may cause generation and dripping of condensate water in the culture dish, resulting in abnormal death of eggs due to soaking in water; it is also necessary to ensure sufficient strong ambient light, without directing irradiating the leaves. • (5) Survey of Results: The experimental materials of each treatment group were regularly hydrated and moisturized, and the hatching of eggs was observed. On the 7th day after insecticide delivery, the number of hatched eggs for each treatment was recorded, and the survey of results was recorded in the original notebook. According to the experimental requirements and characteristics of agents, the survey time can be shortened or extended.
• 1) Surveying and recording the number of hatched eggs for each treatment. • 2) Photographing and recording whether there was any pesticide damage to the leaf discs of Vicia faba. • 3) Recording the developmental status of experimental mite eggs, behavior status of nymph mites, including abnormal phenomena such as delayed or stopped development of mite eggs, difficulty in breaking hull for nymph mites, or painful struggles after hatching, etc. • (6) Calculation method: Based on the survey data, the prevention and control effect of each treatment was calculated according to the following formula, and the calculation results were kept to two decimal places. […]

Compound	Hatching rate (%), Replicate 2 (replicate 2)	Hatching rate (%), Replicate 3
CC(COS(=O)OCCF)Oc1cc(Cl)ccc1Cl (stereo not shown) [Compound 7]	8.15%	
CC(COc1cc(Cl)ccc1Cl)OS(=O)OCCBr (stereo not shown) [Compound 9′]		15.15%
CC(C)(COS(=O)OCCBr)Oc1ccc(Cl)cc1Cl (stereo not shown) [Compound 12′]		10.39%
O=C(OCCF)OC1COCC1Oc1ccc(Cl)cc1Cl (stereo not shown) [Compound 25]		0.00%
